Experimental data as given in patent US11584756B2, “Heterocyclic compounds as BET inhibitors” (NUVATION BIO INC., priority 2019, dated 2023).

How the values were obtained:
BRD4-1 = BRD4-1 (Homo sapiens (Human), UniProt O60885); test: Bromodomain and Extraterminal Domain (BET) binding assay, BRD4-1; settings: histone H4 peptide (1-21) K5/8/12/16Ac-biotin ligand; 20 nM protein, 20 nM ligand
Method: (§1) The bromodomain binding assays were performed by Reaction Biology Corp., Malvern, Pa., USA (www.reactionbiology.com). The BET binding assays were conducted in 384 well microplates in assay buffer (50 mM HEPES-HCl, pH 7.5, 100 mM NaCl, 1 mg/ml BSA, 0.05% CHAPS, and 0.5% DMSO) with compounds added as DMSO stocks at a single concentration or with 10-point dose response titrations. BET protein or assay buffer were delivered to the appropriate wells of the microplate. Test compound was then delivered by acoustic technology via a Labcyte Echo550 liquid handler. The microplate was centrifuged for 5 min and pre-incubated for 30 min at RT with gentle shaking. The ligand (histone H4 peptide (1-21) K5/8/12/16Ac-biotin) was delivered and the microplate was again centrifuged for 5 min and allowed to incubate for 30 min at RT with gentle shaking. Donor beads were then added in the absence of light and the microplate was centrifuged and gently shaken. After 5 min, acceptor beads were added in the absence of light and the microplate was centrifuged and gently shaken in the dark for 60 min. The microplate was read using a Perkin Elmer EnSpire Alpha plate reader (λ Ex/λ Em=680/520-620 nm). Percent inhibition was calculated relative to positive and negative controls on a per plate basis. For titration experiments, IC50 values were determined by fitting the percent inhibition versus compound concentration.

BRD4-2 = BRD4-2 (Homo sapiens (Human), UniProt O60885); test: Bromodomain and Extraterminal Domain (BET) binding assay, BRD4-2; settings: histone H4 peptide (1-21) K5/8/12/16Ac-biotin ligand; 130 nM protein, 70 nM ligand
Method: as §1

[1] = tested on: MV-4-11 human acute myeloid leukemia cell line; test: Cell viability assay in MV-4-11 cells (Cell Titer-Glo); type: cell-based; settings: MV4-11, 72 hrs incubation
Method: The effects of test compounds were studied in a cell viability assay in the MV-4-11 human acute myeloid leukemia cell line. The cells were harvested during the logarithmic growth period and counted. Cells were seeded at a count of 15000 cells per well/100 μl. After seeding, cells were incubated at 37° C. 5% CO2 for 1 hr. Cells were treated with test compounds at 8 concentrations within a desired concentration range (e.g. 5 nM-10 μM) for generation of dose response curves by preparing serial dilutions of the test compound in DMSO which were further diluted with culture medium and then added to each well. The plate was further incubated for another 72 hrs in a humidified incubator at 37° C. and 5% CO2. The assay was terminated by addition of Cell Titer-Glo reagent (Promega, Madison, Wis.) at ¼ the volume of total medium per well. Contents were mixed, the plate was incubated for 10 min at room temperature and luminescence was measured. Cell viability data were plotted using GraphPad Prism (GraphPad Software, Inc., San Diego, Calif.). In addition, a nonlinear regression model with a sigmoidal dose response and variable slope within GraphPad Prism was used to calculate the IC50 value of individual test compounds.

Q: Which results are given for `Cc1cc(F)cc(C)c1Oc1ccc(C(C)(C)O)cc1-c1cn(C)c(=O)c2ccsc12` [Compound 2.1, 7-(2-(4-fluoro-2,6-dimethylphenoxy)-5-(2-hydroxypropan-2-yl)phenyl)-5-methylthieno[3,2-c]pyridin-4(5H)-one]?
A: IC50 (BRD4-1): 2500 nM; IC50 (BRD4-2): 19.8 nM; IC50 [1]: 0.47 µM

Q: Which IC50 (BRD4-1) does the source give for `Cn1cc(-c2cc(C(C)(C)O)ccc2Oc2ccc(F)cc2F)c2sccc2c1=O` [Compound 2.3, 7-(2-(2,4-difluorophenoxy)-5-(2-hydroxypropan-2-yl)phenyl)-5-methylthieno[3,2-c]pyridin-4(5H)-one] here?
A: The IC50 was 118 nM.

Q: And the IC50 (BRD4-2)?
A: The IC50 was 28.5 nM.

Q: And the IC50 [1]?
A: Its IC50 is 0.163 µM.

Q: Which results are given for `CCS(=O)(=O)Nc1ccc(Oc2ccc(F)cc2F)c(-c2cn(C)c(=O)c3ccsc23)c1` [Compound 2.91, N-(4-(2,4-difluorophenoxy)-3-(5-methyl-4-oxo-4,5-dihydrothieno [3,2-c]pyridin-7-yl)phenyl)ethanesulfonamide]?
A: IC50 (BRD4-1): 15 nM; IC50 (BRD4-2): 7.3 nM

Q: `Cn1cc(-c2cc(C(C)(C)O)ccc2Oc2ccc(F)cc2F)c2cc(C(=O)NCC(F)(F)F)sc2c1=O` [Compound 5, 4-(2-(2,4-difluorophenoxy)-5-(2-hydroxypropan-2-yl)phenyl)-6-methyl-7-oxo-N-(2,2,2-trifluoroethyl)-6,7-dihydrothieno[2,3-c]pyridine-2-carboxamide] was tested. Which IC50 (BRD4-1) did it give?
A: Its IC50 is 744 nM.

Q: What about the IC50 (BRD4-2) of the same compound?
A: Its IC50 is 18 nM.

Q: And the IC50 [1]?
A: Its IC50 is 0.597 µM.

Q: With `Cn1cc(-c2cc(C(C)(C)O)ccc2Oc2ccc(F)cc2F)c2cc(C(=O)N3CCCCC3)sc2c1=O` [Compound 6, 4-(2-(2,4-difluorophenoxy)-5-(2-hydroxypropan-2-yl)phenyl)-6-methyl-2-(piperidine-1-carbonyl)thieno[2,3-c]pyridin-7(6H)-one] as the compound, how does the IC50 (BRD4-1) read?
A: Its IC50 is 1480 nM.

Q: What about the IC50 (BRD4-2) of the same compound?
A: The IC50 was 32 nM.

Q: And the IC50 [1]?
A: Its IC50 is 1.79 µM.

Q: How did the IC50 (BRD4-2) turn out when `Cn1cc(-c2cc(C(C)(C)O)ccc2Oc2ccc(F)cc2F)c2cc(CN3CCCCC3)sc2c1=O` [Compound 7, 4-(2-(2,4-difluorophenoxy)-5-(2-hydroxypropan-2-yl)phenyl)-6-methyl-2-(piperidin-1-ylmethyl)thieno[2,3-c]pyridin-7(6H)-one] was run?
A: Its IC50 is 497 nM.

Q: What about the IC50 [1] of the same compound?
A: The IC50 was 2.48 µM.

Q: Which IC50 (BRD4-1) does the source give for `Cc1nnc(-c2cc3c(-c4cc(C(C)(C)O)ccc4Oc4ccc(F)cc4F)cn(C)c(=O)c3s2)o1` [Compound 12, 4-(2-(2,4-difluorophenoxy)-5-(2-hydroxypropan-2-yl)phenyl)-6-methyl-2-(5-methyl-1,3,4-oxadiazol-2-yl)thieno[2,3-c]pyridin-7(6H)-one] here?
A: Its IC50 is 17 nM.

Q: What about the IC50 (BRD4-2) of the same compound?
A: Its IC50 is 12.5 nM.

Q: What about the IC50 [1] of the same compound?
A: Its IC50 is 0.074 µM.

Q: `Cn1cc(-c2cc(C(C)(C)O)ccc2Oc2ccc(F)cc2F)c2cc(C(=O)NC3(C(F)(F)F)CC3)sc2c1=O` [Compound 14, 4-(2-(2,4-difluorophenoxy)-5-(2-hydroxypropan-2-yl)phenyl)-6-methyl-7-oxo-N-(1-(trifluoromethyl)cyclopropyl)-6,7-dihydrothieno[2,3-c]pyridine-2-carboxamide] was tested. Which IC50 (BRD4-1) did it give?
A: Its IC50 is 1170 nM.

Q: What about the IC50 (BRD4-2) of the same compound?
A: The IC50 was 47 nM.

Q: What about the IC50 [1] of the same compound?
A: The IC50 was 0.768 µM.

Q: With `CCN(CC)C(=O)c1cc2c(-c3cc(C(C)(C)O)ccc3Oc3c(C)cc(F)cc3C)cn(C)c(=O)c2s1` [Compound 155, N,N-diethyl-4-(2-(4-fluoro-2,6-dimethylphenoxy)-5-(2-hydroxypropan-2-yl)phenyl)-6-methyl-7-oxo-6,7-dihydrothieno[2,3-c]pyridine-2-carboxamide] as the compound, how does the IC50 (BRD4-1) read?
A: Its IC50 is over 10000 nM.

Q: What about the IC50 (BRD4-2) of the same compound?
A: Its IC50 is 4070 nM.

Q: `C=C(C)c1ccc(Oc2c(C)cc(F)cc2C)c(-c2cn(C)c(=O)c3cc(C(=O)NCC)sc23)c1` [Compound 156, N-ethyl-7-(2-(4-fluoro-2,6-dimethylphenoxy)-5-(prop-1-en-2-yl)phenyl)-5-methyl-4-oxo-4,5-dihydrothieno[3,2-c]pyridine-2-carboxamide] was tested. Which IC50 (BRD4-1) did it give?
A: The IC50 was over 10000 nM.

Q: And the IC50 (BRD4-2)?
A: Its IC50 is 740 nM.

Q: Which results are given for `CCNC(=O)c1cc2c(=O)n(C)cc(-c3cc(C(C)(C)O)ccc3Oc3ccc(F)cc3F)c2s1` [Compound 159, 7-(2-(2,4-difluorophenoxy)-5-(2-hydroxypropan-2-yl)phenyl)-N-ethyl-5-methyl-4-oxo-4,5-dihydrothieno[3,2-c]pyridine-2-carboxamide]?
A: IC50 (BRD4-1): 18 nM; IC50 (BRD4-2): 1.7 nM
